We go through 88 molecules from a melting point compilation (Tetko et al.).

For orientation: melting point means the temperature of the solid-liquid transition.

`O=C(O)CCC(=O)c1ccc(F)c(F)c1`: the melting point lay within 84 to 86 °C.

As to `Nc1nc(=O)cc[nH]1`, the melting point lay within 268 to 272 °C.

`NCCCN1CCCC(C(N)=O)C1` (stereo not drawn) yielded a melting point of 71 to 73 °C.

As to `[N-]=[N+]=NCC(=O)NCc1ccccc1`, the melting point is 39 to 41 °C.

For the molecule `O=C(O)C(Cc1ccsc1)C(=O)O`, the melting point was in the range of 108 to 110 °C.

Take `CN(C)S(=O)(=O)c1ccc(N2CCCCC2)c(C(=O)O)c1`: the melting point lay in the range of 135 to 137 °C.

Consider `Cc1cccc(NC2=NC(=O)CS2)c1`, for which the melting point was in the range of 160 to 162 °C.

Molecule `Cc1cc(OCc2ccc(C(=O)NN)cc2)ccc1Cl` registered a melting point of 78 to 80 °C.

For the molecule `N#Cc1cc2c([nH]c1=O)CCC2`, the melting point lay in the range of 219 to 221 °C.

`Cc1cc(C)c(C)c(S(=O)(=O)N2CCC(C(=O)O)CC2)c1C`: the melting point fell in the range of 107 to 109 °C.

The molecule `CON(C)C(=O)Cc1ccc(Cl)cc1` gave a melting point of 45 to 47 °C.

`CSc1ccc(C(=O)O)cn1` yielded a melting point of 182 to 184 °C.

The molecule `CCOC(=O)c1c(N)sc(C(=O)OC(C)(C)C)c1C` registered a melting point of 108 to 110 °C.

`CCCc1nonc1N` came in with a melting point of 29 to 31 °C.

For `Cc1cc(C)n(-c2ccccc2N)n1`, the melting point lay in the range of 81 to 83 °C.

Regarding `CCC1CSC(Nc2ccc(Cl)c(Cl)c2)=N1` (stereo not drawn), the melting point lay in the range of 107 to 109 °C.

The molecule `CC(C)(C)OC(=O)N1CCc2n[nH]c(=O)cc2C1` yielded a melting point of 187 to 189 °C.

Consider `NCc1noc(-c2ccsc2)n1`, for which the melting point was 127 to 129 °C.

Molecule `COCC(=O)NC(C)C(=O)O` (stereo not drawn) yielded a melting point of 108 to 110 °C.

Take `Clc1cc2nn[nH]c2cc1Cl`: the melting point lay within 249 to 251 °C.

As for `O=C(O)CCc1ccccc1[N+](=O)[O-]`, the melting point fell in the range of 109 to 111 °C.

For the molecule `Nc1ccc(NC(=O)CCN2C(=O)CNC2=O)cc1`, the melting point lay within 234 to 236 °C.

`Cc1ccc(C=O)nc1` showed a melting point of 39 to 41 °C.

With `CCC(Oc1ccccc1Cl)C(=O)O` (stereo not drawn), the melting point was in the range of 82 to 84 °C.

On to `CCCCS(=O)(=O)N1CCCCC1C(=O)O` (stereo not drawn), for which the melting point was in the range of 78 to 80 °C.

`O=c1[nH]cnc2c1oc1ccccc12` gave a melting point of 300 to 302 °C.

On to `CC(C)(C)C1=NN(c2ccccc2)C(=O)C1=CCl`, for which the melting point lay in the range of 89 to 91 °C.

In turn, `O=C(O)c1ccccc1NCc1cccnc1` showed a melting point of 189 to 191 °C.

Take `Cc1cc(C)c2c(-c3ccccc3)nc(S)n2n1`: the melting point fell in the range of 328 to 330 °C.

In turn, `N#Cc1ccc(CNc2ccc3[nH]c(=O)[nH]c3c2)cc1` yielded a melting point of 276 to 278 °C.

Molecule `COc1ccccc1NS(=O)(=O)c1ccc2oc(S)nc2c1` gave a melting point of 109 to 113 °C.

For `CC(C)C1CCNC(=O)CC1` (stereo not drawn), the melting point was 76 to 78 °C.

As to `O=C(O)c1cc(=O)[nH]c2cc(F)ccc12`, the melting point is 323 to 325 °C.

Take `CC(C)(C)N1C(=O)CC(C(=O)O)C1c1ccc(Cl)c(F)c1` (stereo not drawn): the melting point fell in the range of 249 to 251 °C.

Take `O=C1CCCS(=O)(=O)c2ccccc21`: the melting point fell in the range of 151 to 153 °C.

Molecule `O=C(O)c1ccn(-c2ccc(Cl)cc2)n1` yielded a melting point of 169 to 171 °C.

`CC(=O)c1cccc(NC(=O)CCl)c1` gave a melting point of 112 to 114 °C.

For the molecule `O=C(O)c1c[nH]c2ccc(F)cc12`, the melting point lay in the range of 225 to 227 °C.

With `Cn1ccnc1-c1cc(N)[nH]n1`, the melting point lay in the range of 167 to 169 °C.

Consider `OCc1cn2cc(Cl)cc(Cl)c2n1`, for which the melting point is 177 to 179 °C.

Molecule `Cc1c[nH]c(=O)n1-c1ccc(Cl)cc1` gave a melting point of 185 to 187 °C.

The molecule `Nc1nc(Cl)nnc1Cl` came in with a melting point of 198 to 200 °C.

On to `O=C(CCl)NC(=O)NC1CC1`, for which the melting point fell in the range of 105 to 107 °C.

`O=C(NCc1cccnc1)OCC(F)(F)F`: the melting point lay in the range of 45 to 47 °C.

As for `O=C(O)CC(NC(=O)c1ccccc1)c1ccccc1` (stereo not drawn), the melting point was in the range of 197 to 199 °C.

Take `CCS(=O)(=O)Nc1nc2ccc(N)cc2s1`: the melting point lay within 217 to 219 °C.

On to `CNc1c(F)cccc1C(=O)O`, for which the melting point fell in the range of 134 to 136 °C.

`S=c1[nH]nnn1-c1ccc(Br)cc1` returned a melting point of 162 to 164 °C.

Regarding `C#CCNC(=O)Nc1cc(C)on1`, the melting point was 163 to 165 °C.

The molecule `ClCc1cn(-c2ccc(Cl)c(Cl)c2)nn1` yielded a melting point of 138 to 140 °C.

For `O=C(O)c1cccc(NC(=O)C2CCCCC2)c1`, the melting point was 228 to 230 °C.

In the case of `CN(C)c1ncccc1O`, the melting point was 173 to 175 °C.

`CN(CC(=O)O)S(=O)(=O)c1ccc(Br)cc1` yielded a melting point of 179 to 181 °C.

As to `O=C(O)c1n[nH]c2ccc([N+](=O)[O-])cc12`, the melting point fell in the range of 253 to 255 °C.

Molecule `Nc1cc(C2CCOCC2)[nH]n1` showed a melting point of 103 to 105 °C.

Molecule `CCOc1cccc(F)c1[N+](=O)[O-]` showed a melting point of 34 to 36 °C.

For the molecule `COc1ccccc1-c1cc(N)n(-c2ccccc2)n1`, the melting point fell in the range of 119 to 121 °C.

Take `CN(C)CC(O)C(F)(F)F` (stereo not drawn): the melting point lay in the range of 63 to 65 °C.

With `CS(=O)(=O)N1CCC(NC(=O)N2CCC(C(=O)O)CC2)CC1`, the melting point is 197 to 199 °C.

With `O=S(=O)(Cl)Cc1cc(-c2ccccc2)no1`, the melting point lay within 115 to 117 °C.

`COc1cc(C(=O)O)cc(OC)c1C(C)C` registered a melting point of 164 to 166 °C.

In turn, `O=C(O)C(c1ccccc1)N1CCS(=O)(=O)CC1` (stereo not drawn) registered a melting point of 165 to 167 °C.

On to `Cc1c(C=O)cc(C#N)n1C`, for which the melting point lay in the range of 85 to 97 °C.

`CC(C)(C)OC(=O)Nc1ccc(C(F)(F)F)cc1N` returned a melting point of 140 to 142 °C.

In turn, `Cc1cc(C)n(-c2ccc(S(N)(=O)=O)cc2)n1` yielded a melting point of 243 to 245 °C.

`CC(Cl)C(=O)NCc1ccc(Cl)cc1` (stereo not drawn) displayed a melting point of 100 to 102 °C.

As for `CCOc1ccccc1-c1csc(N)n1`, the melting point lay in the range of 209 to 211 °C.

Molecule `CNc1cccc2ncccc12` came in with a melting point of 125 to 127 °C.

Turning to `O=C(c1ccc[nH]1)N1CCCNCC1`, the melting point lay within 143 to 145 °C.

Consider `O=C1OCCc2cnc3nc(C(F)(F)F)nn3c21`, for which the melting point lay in the range of 185 to 187 °C.

In turn, `Nc1nnc(-c2ccc(Cl)cc2)o1` had a melting point of 260 to 262 °C.

In turn, `CC(Cl)C(=O)NCC1CCCCC1` (stereo not drawn) displayed a melting point of 83 to 85 °C.

In turn, `NCCc1nc2ccccc2[nH]1` had a melting point of 215 to 230 °C.

`CNC1(c2ccccc2Cl)CCCC(=Cc2cccs2)C1=O` (stereo not drawn) registered a melting point of 129 to 131 °C.

In the case of `CC(Cl)C(=O)Nc1ccccc1Cc1ccccc1` (stereo not drawn), the melting point fell in the range of 144 to 146 °C.

`CN1CCc2nc(N)c(C#N)cc2C1` displayed a melting point of 215 to 217 °C.

`CCOC(=O)c1cccnc1S` showed a melting point of 99 to 101 °C.

Consider `Cn1cccc1C(=O)NC1CCNCC1`, for which the melting point was 195 to 197 °C.

`COC(=O)c1sc(-c2cccc(Br)c2)cc1N` registered a melting point of 107 to 109 °C.

With `CCCC1(c2ccccc2)NC(=O)NC1=O` (stereo not drawn), the melting point was in the range of 172 to 174 °C.

As to `CNC(=O)c1ccc(Cl)nn1`, the melting point was in the range of 170 to 172 °C.

`Cc1cc(OC(F)F)c(C(=O)O)s1` showed a melting point of 155 to 157 °C.

Turning to `CCc1c(C)sc(N)c1C#N`, the melting point fell in the range of 103 to 105 °C.

Consider `Nc1cc(-c2ccsc2)no1`, for which the melting point is 89 to 91 °C.

Molecule `O=Cc1cc(O)c(O)c(Cl)c1` yielded a melting point of 234 to 236 °C.

`Cc1cccc(N2C(=O)NC(CCC(=O)O)C2=O)c1` (stereo not drawn): the melting point fell in the range of 158 to 160 °C.

As for `Nc1nnc(Cc2cccc3ccccc23)o1`, the melting point was 224 to 226 °C.

As for `O=S(=O)(Cl)c1cccc(-c2nnco2)c1`, the melting point lay within 87 to 89 °C.
